# Experimental data from patent publication US11241440B2, “Dihydrooxadiazine compounds for treating infections and cancer” (VALORALIA I MÁS D, SL, priority 2016, dated 2022).
# Assays:
# Test in all cases: Kirby-Bauer disk diffusion susceptibility test
# N. carnea = type: cell-based, Nocardia carnea
# N. cyriacigeorgica = type: cell-based
# T. pulmonis = type: cell-based, Tsukamurella pulmonis
# S. epidermidis = type: cell-based, Staphylococcus epidermidis
# S. aureus = type: cell-based, Staphylococcus aureus
# A. baumannii = type: cell-based, Acinetobacter baumannii
# B. cereus = type: cell-based, Bacillus cereus
# M. chelonae = type: cell-based; conditions: M. chelonae strain 870, isolation year 2011
# M. abscessus = type: cell-based, Mycobacterium abscessus; conditions: M. abscessus strain 690, isolation year 2012
# M. fortuitum = type: cell-based; conditions: M. fortuitum strain 1080, isolation year 2011
# [1] = N. carnea strain 40, isolation year 2011
# [2] = N. carnea strain 769, isolation year 2009
# [3] = N. cyriacigeorgica strain 30, isolation year 2005
# [4] = N. cyriacigeorgica strain 199, isolation year 2005
# [5] = T. pulmonis strain 40, isolation year 2015
# [6] = T. pulmonis strain 1991, isolation year 2009
# [7] = S. epidermidis strain 188, isolation year 2009
# [8] = S. epidermidis strain 982, isolation year 2006
# [9] = S. aureus strain 282, isolation year 2005
# [10] = S. aureus strain 890, isolation year 2010
# [11] = A. baumannii strain 300, isolation year 2001
# [12] = A. baumannii strain 1301, isolation year 2009
# [13] = B. cereus strain 25, isolation year 2014
# [14] = B. cereus strain 182, isolation year 2013
Compound,Characteristics of strains: susceptibility or resistance (N. carnea; [1]),Characteristics of strains: susceptibility or resistance (N. carnea; [2]),Characteristics of strains: susceptibility or resistance (N. cyriacigeorgica; [3]),Characteristics of strains: susceptibility or resistance (N. cyriacigeorgica; [4]),Characteristics of strains: susceptibility or resistance (T. pulmonis; [5]),Characteristics of strains: susceptibility or resistance (T. pulmonis; [6]),Characteristics of strains: susceptibility or resistance (S. epidermidis; [7]),Characteristics of strains: susceptibility or resistance (S. epidermidis; [8]),Characteristics of strains: susceptibility or resistance (S. aureus; [9]),Characteristics of strains: susceptibility or resistance (S. aureus; [10]),Characteristics of strains: susceptibility or resistance (A. baumannii; [11]),Characteristics of strains: susceptibility or resistance (A. baumannii; [12]),Characteristics of strains: susceptibility or resistance (B. cereus; [13]),Characteristics of strains: susceptibility or resistance (B. cereus; [14]),other results
"NCC[C@H](O)C(=O)N[C@@H]1C[C@H](N)[C@@H](O[C@H]2O[C@H](CN)[C@@H](O)[C@H](O)[C@H]2O)[C@H](O)[C@H]1O[C@H]1O[C@H](CO)[C@@H](O)[C@H](N)[C@H]1O [AMK, Amikacin]",R,S,S,R,R,S,S,S,S,S,R,S,,,
"CO/N=C(\C(=O)N[C@@H]1C(=O)N2C(C(=O)O)=C(CSc3nc(=O)c(O)nn3C)CS[C@H]12)c1csc(N)n1 [CEF, Ceftriazone]",,,,,,,,,,,R,R,,,
"CCC[C@@H]1C[C@@H](C(=O)N[C@@H]([C@H]2O[C@H](SC)[C@H](O)[C@@H](O)[C@H]2O)[C@H](C)Cl)N(C)C1 [CLI, Clindamycin]",,,,,,,S,R,R,R,,,R,R,
"CO/N=C(\C(=O)N[C@@H]1C(=O)N2C(C(=O)O)=C(COC(C)=O)CS[C@H]12)c1csc(N)n1 [CTX, Cefotaxime]",S,S,S,R,R,S,,,,,,,,,
"CC[C@H]1OC(=O)[C@H](C)[C@@H](O[C@H]2C[C@@](C)(OC)[C@@H](O)[C@H](C)O2)[C@H](C)[C@@H](O[C@@H]2O[C@H](C)C[C@H](N(C)C)[C@H]2O)[C@](C)(O)C[C@@H](C)C(=O)[C@H](C)[C@@H](O)[C@]1(C)O [ERI, Erythromycin]",R,R,R,R,R,S,S,R,R,R,,,R,R,Characteristics of strains: susceptibility or resistance (M. chelonae): R; Characteristics of strains: susceptibility or resistance (M. abscessus): S; Characteristics of strains: susceptibility or resistance (M. fortuitum): R
"CC(=O)NC[C@H]1CN(c2ccc(N3CCOCC3)c(F)c2)C(=O)O1 [LIN, Linezolid]",S,S,S,S,R,S,,,,,,,,,Characteristics of strains: susceptibility or resistance (M. chelonae): R; Characteristics of strains: susceptibility or resistance (M. abscessus): S; Characteristics of strains: susceptibility or resistance (M. fortuitum): R
"C[C@@H](O)[C@H]1C(=O)N2C(C(=O)O)=C(S[C@@H]3CN[C@H](C(=O)N(C)C)C3)[C@H](C)[C@H]12 [MER, Meropenem]",,,,,,,,,,,R,S,,,
"CO[C@H]1/C=C/O[C@@]2(C)Oc3c(C)c(O)c4c(O)c(c(/C=N/N5CCN(C)CC5)c(O)c4c3C2=O)NC(=O)/C(C)=C\C=C\[C@H](C)[C@H](O)[C@@H](C)[C@@H](O)[C@@H](C)[C@H](OC(C)=O)[C@@H]1C [RIF, Rifampicin]",,,,,,,,,,,,,S,S,
"CN(C)[C@@H]1C(O)=C(C(N)=O)C(=O)[C@@]2(O)C(O)=C3C(=O)c4c(O)cccc4[C@@](C)(O)[C@H]3C[C@@H]12 [TET, Tetracycline]",,,,,,,S,S,S,R,,,R,S,
"NC[C@H]1O[C@H](O[C@H]2[C@H](O)[C@@H](O[C@H]3O[C@H](CO)[C@@H](O)[C@H](N)[C@H]3O)[C@H](N)C[C@@H]2N)[C@H](N)C[C@@H]1O [TOB, Tobramycin]",,,,,,,,,,,S,S,,,
"CN[C@H](CC(C)C)C(=O)N[C@H]1C(=O)N[C@@H](CC(N)=O)C(=O)N[C@H]2C(=O)N[C@H]3C(=O)N[C@H](C(=O)N[C@H](C(=O)O)c4cc(O)cc(O)c4-c4cc3ccc4O)[C@H](O)c3ccc(c(Cl)c3)Oc3cc2cc(c3O[C@@H]2O[C@H](CO)[C@@H](O)[C@H](O)[C@H]2O[C@H]2C[C@](C)(N)[C@H](O)[C@H](C)O2)Oc2ccc(cc2Cl)[C@H]1O [VAN, Vancomycin]",,,,,,,S,S,S,S,,,S,S,
Gentamicin,,,,,,,S,R,R,R,,,,,
Penicillin,,,,,,,,,,,,,S,S,Characteristics of strains: susceptibility or resistance (M. abscessus): R; Characteristics of strains: susceptibility or resistance (M. fortuitum): R
